Experimental data reported in patent US20090163579A1, “Novel use of nutraceutical compositions” (priority 2006, published 2009).

Tested on: C57BLKS/J db/db mice
Assay: 3 months feeding study on muscle mass in db/db mice (NMR muscle mass, body weight, food intake)
Type: in vivo
Details: for effect on muscle loss (in words) / muscle mass increase: db/db mice, 3 months of treatment; for effect on muscle loss (in words) / muscle mass increase / BW (g), change from baseline / Muscle (g), change from baseline: 0.08% of diet; for muscle mass increase: control reduced by 2%; for BW (g), change from baseline / Muscle (g), change from baseline / BW (g), 5 months old mice / Muscle (g), 5 months old mice: male db/db mice, after 3 months of treatment; for BW (g), 5 months old mice / Muscle (g), 5 months old mice: 0.08% of diet as feed-ad-mix; for Muscle (g), 5 months old mice: total muscle mass by NMR
Protocol: The efficacy of resveratrol, EGCG as well as the combination of both compounds on muscle mass was tested in a 3 months feeding study in C57BLKS/J db/db mice (n=20/group). C57BLKS/J db/db mice suffer from severe metabolic disorder due to a defect in the leptin receptor and loss muscle mass as they age. Muscle wasting has been associated with chronic metabolic derangements. Moreover, muscle wasting induced by a variety of means in both rodents and humans results in similar changes in muscle anatomy, cross-sectional area, function, fiber type switching, contractile protein expression, and histology. […] These agents include anabolic steroids, growth hormone, insulin-like growth factor 1, and beta adrenergic agonists. […] Therefore, the rodent model can be used to evaluate the efficacy of compounds inhibiting muscle wasting.
Male db/db mice were obtained from Jackson Laboratory (Bar Harbor, Me., USA). Adult mice at the age of 8 weeks were used in the experiment. Mice were housed individually in plastic cages with bedding and allowed free access to standard rodent food and tap water. The animal rooms were controlled for temperature (24° C.), humidity (55%), and light (12-h light-dark cycle). The animals were randomized into four groups. Resveratrol and EGCG were administered as feed-ad-mix. Corn cellulose (1% of diet) served as a carrier substance for resveratrol and EGCG as well as a placebo when used alone. Group 1 received placebo, group 2 received a diet containing 0.08% of resveratrol; group 3 received a diet containing 0.08% of EGCG; and group 4 received a diet containing 0.08% of resveratrol and 0.08% of EGCG. Body weight and food intake were determined over the course of the study. Total muscle mass was determined by nuclear magnetic resonance (NMR) measurement after 3 months of treatment. There was no difference in food intake between the groups over the study period.

Compound | effect on muscle loss (in words) | muscle mass increase | BW (g), change from baseline | Muscle (g), change from baseline | BW (g), 5 months old mice | Muscle (g), 5 months old mice
Oc1ccc(C=Cc2cc(O)cc(O)c2)cc1 [Resveratrol, resveratrol] | prevents muscle loss | 6% | 3.9 g | 1.0 g | 34.2 g | 17.0 g
(−)-epigallocatechin gallate [EGCG] | prevents muscle loss | 3% | 1.0 g | 0.5 g | 31.4 g | 16.2 g
